The source made the active and inactive calls. The rule behind the calls is not given here.
What was measured:
[1] = target: Transient receptor potential cation channel subfamily V member 1 (Homo sapiens) (UniProt Q8NER1); assay: Inhibition of TRPV1 (unknown origin) overexpressed in HEK-293T cells assessed as decrease in TGFbeta-induced alpha-SMA expression at 10 uM measured after 48 hrs incubation by Western blotting analysis; format: cell-based
[2] = AUC(0 to t) in Sprague-Dawley rat at 50 mg/kg, iv measured upto 4 hrs by UPLC-MS/MS analysis; format: ADME, organism-based; settings: in vivo
NIH3T3 [3] = assay: Inhibition of TGFbeta-induced Smad2 phosphorylation in mouse NIH3T3 cells by Western blot analysis; format: functional, cell-based; settings: dose 1-10 µM
NIH3T3 [4] = assay: Inhibition of TGFbeta-induced JNK phosphorylation in mouse NIH3T3 cells at 1 to 10 uM by Western blot analysis; format: functional, cell-based; settings: dose 1-10 µM
[5] = Cmax in Sprague-Dawley rat at 50 mg/kg, ip measured upto 4 hrs by UPLC-MS/MS analysis; format: ADME, organism-based; settings: in vivo
[6] = Bioavailability in Sprague-Dawley rat at 50 mg/kg, ip measured upto 4 hrs by UPLC-MS/MS analysis; format: ADME, organism-based; settings: in vivo
[7] = Acute toxicity in Kunming female mouse assessed as Lactate dehydrogenase (LDH) level at 180 mg/kg, ip measured after 14 days (reference value: 1952.7 U/L); format: organism-based; settings: in vivo, 336 h, time 14 day
[8] = Acute toxicity in Kunming mouse assessed as organ lesions in lung at 180 mg/kg, ip measured after 14 days by H and E staining based assay; format: organism-based; settings: in vivo, 336 h, time 14 day
[9] = Acute toxicity in Kunming male mouse assessed as Alanine aminotransferase (ALT) level at 180 mg/kg, ip measured after 14 days (reference value: 55.3 U/L); format: organism-based; settings: in vivo, 336 h, time 14 day
[10] = Acute toxicity in Kunming male mouse assessed as Albumin (ALB) level at 180 mg/kg, ip measured after 14 days (reference value: 32.6 g/L); format: organism-based; settings: in vivo, 336 h, time 14 day
[11] = Toxicity in bleomycin-induced pulmonary fibrosis mouse model assessed as body weight change at 10 to 20 mg/kg, ip administered every alternative day for 8 to 21 days after modeling; format: organism-based; settings: in vivo, dose lower 10 mg/kg, time lower 8 day, dose upper 20 mg/kg, time upper 21 day
[12] = Acute toxicity in Kunming male mouse assessed as Total bilirubin (T-Bil) level at 180 mg/kg, ip measured after 14 days (reference value: 12.99 micromol/L); format: organism-based; settings: in vivo, 336 h, time 14 day
Rattus norvegicus [13] = assay: Zeta in Sprague-Dawley rat at 50 mg/kg, ip measured upto 4 hrs by UPLC-MS/MS analysis; format: ADME, organism-based; settings: in vivo
NIH3T3 [14] = assay: Inhibition of TGFbeta1-induced proliferation of mouse NIH3T3 cells assessed as colony formation at 10 uM measured after 7 to 14 days by Crystal violet staining based assay; format: functional, cell-based; settings: time 7-14 day
[15] = Acute toxicity in Kunming mouse assessed as organ lesions in kidney at 180 mg/kg, ip measured after 14 days by H and E staining based assay; format: organism-based; settings: in vivo, 336 h, time 14 day
Mus musculus [16] = assay: Anti-fibrotic activity against bleomycin-induced pulmonary fibrosis mouse model assessed as increase in lung compliance at 10 to 20 mg/kg, ip administered every alternative day for 8 to 21 days after modeling; format: functional, organism-based; settings: dose 10-20 mg/kg, time 8-21 day
Rattus norvegicus [17] = assay: Zeta in Sprague-Dawley rat at 50 mg/kg, po measured upto 4 hrs by UPLC-MS/MS analysis; format: ADME, organism-based; settings: in vivo
[18] = Acute toxicity in Kunming female mouse assessed as Albumin (ALB) level at 180 mg/kg, ip measured after 14 days (reference value: 35.8 g/L); format: organism-based; settings: in vivo, 336 h, time 14 day
Mus musculus [19] = assay: Anti-pulmonary fibrotic activity against bleomycin induced pulmonary fibrosis mouse model assessed as reduction in inflammatory cell infiltration at 10 to 20 mg/kg, ip administered every alternative day for 8 to 21 days after modeling; format: functional, organism-based; settings: dose 10-20 mg/kg, time 8-21 day
[20] = target: Transient receptor potential cation channel subfamily V member 1 (Mus musculus) (UniProt Q704Y3); assay: Thermal stabilization of TRPV1 in mouse NIH3T3 cells assessed as reduction in TRPV1 degradation at 60 degreeC measured after 30 mins by CETSA; format: cell-based; settings: dose 1-50 µM
Chain of Transient receptor potential cation channel subfamily V member 1 (Mus musculus) (Q704Y3 whole entry): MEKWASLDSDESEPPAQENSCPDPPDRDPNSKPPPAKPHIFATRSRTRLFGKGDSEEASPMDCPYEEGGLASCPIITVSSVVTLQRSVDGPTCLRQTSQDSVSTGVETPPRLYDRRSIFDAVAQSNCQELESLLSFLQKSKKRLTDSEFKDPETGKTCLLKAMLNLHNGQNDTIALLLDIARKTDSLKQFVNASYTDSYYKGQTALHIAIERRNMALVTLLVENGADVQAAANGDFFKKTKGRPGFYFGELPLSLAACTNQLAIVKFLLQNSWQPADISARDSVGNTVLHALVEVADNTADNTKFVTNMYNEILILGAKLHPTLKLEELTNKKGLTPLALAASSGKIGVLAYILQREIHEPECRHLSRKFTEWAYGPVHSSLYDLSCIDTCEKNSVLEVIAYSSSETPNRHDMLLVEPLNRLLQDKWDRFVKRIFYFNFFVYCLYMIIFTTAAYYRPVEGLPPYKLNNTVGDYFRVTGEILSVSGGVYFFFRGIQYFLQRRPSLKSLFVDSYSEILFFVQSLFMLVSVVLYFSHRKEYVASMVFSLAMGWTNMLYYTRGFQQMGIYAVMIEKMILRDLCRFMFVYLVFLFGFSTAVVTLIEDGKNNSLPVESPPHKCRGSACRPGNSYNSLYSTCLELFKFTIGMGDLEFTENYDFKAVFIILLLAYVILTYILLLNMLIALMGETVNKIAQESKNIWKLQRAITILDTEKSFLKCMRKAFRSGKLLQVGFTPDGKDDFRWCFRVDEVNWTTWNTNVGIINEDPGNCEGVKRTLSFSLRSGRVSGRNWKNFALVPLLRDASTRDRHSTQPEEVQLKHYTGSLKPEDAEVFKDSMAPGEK

NIH3T3 [21] = assay: Antifibrotic activity in mouse NIH3T3 cells assessed as decrease in TGFbeta-induced alpha-SMA expression measured after 48 hrs incubation by Western blotting analysis; format: functional, cell-based; settings: dose 1-10 µM
[22] = MRT(0 to t) in Sprague-Dawley rat at 50 mg/kg, ip measured upto 4 hrs by UPLC-MS/MS analysis; format: ADME, organism-based; settings: in vivo
[23] = Acute toxicity in Kunming female mouse assessed as Uric acid (UA) level at 180 mg/kg, ip measured after 14 days (reference value: 252.2 micromol/L); format: organism-based; settings: in vivo, 336 h, time 14 day
NIH3T3 [24] = assay: Antifibrotic activity in mouse NIH3T3 cells assessed as decrease in TRPV1 expression measured after 48 hrs incubation by Western blotting analysis; format: functional, cell-based; settings: dose 1-10 µM
[25] = Tmax in Sprague-Dawley rat at 50 mg/kg, ip measured upto 4 hrs by UPLC-MS/MS analysis; format: ADME, organism-based; settings: in vivo
NIH3T3 [26] = assay: Anti-fibrotic activity in mouse NIH3T3 cells assessed as inhibition of TGFbeta-induced total collagen production measured after 48 hrs by Sirius Red Collagen Detection Kit relative to control; format: functional, cell-based; settings: NIH3T3, 48 h
[27] = Apparent volume of distribution in Sprague-Dawley rat at 50 mg/kg, po measured upto 4 hrs by UPLC-MS/MS analysis; format: ADME, organism-based; settings: in vivo
[28] = Acute toxicity in Kunming female mouse assessed as Alanine aminotransferase (ALT) level at 180 mg/kg, ip measured after 14 days (reference value: 33.7 U/L); format: organism-based; settings: in vivo, 336 h, time 14 day
NIH3T3 [29] = assay: Inhibition of TGFbeta-induced Smad3 phosphorylation in mouse NIH3T3 cells by Western blot analysis; format: functional, cell-based; settings: dose 1-10 µM
Mus musculus [30] = assay: Anti-pulmonary fibrotic activity against bleomycin induced pulmonary fibrosis mouse model assessed as reduction in pulmonary fibrosis lesions at 10 to 20 mg/kg, ip administered every alternative day for 8 to 21 days after modeling; format: functional, organism-based; settings: dose 10-20 mg/kg, time 8-21 day
[31] = Tmax in Sprague-Dawley rat at 50 mg/kg, po measured upto 4 hrs by UPLC-MS/MS analysis; format: ADME, organism-based; settings: in vivo
[32] = Apparent volume of distribution in Sprague-Dawley rat at 50 mg/kg, ip measured upto 4 hrs by UPLC-MS/MS analysis; format: ADME, organism-based; settings: in vivo
[33] = VRT(0 to t) in Sprague-Dawley rat at 50 mg/kg, ip measured upto 4 hrs by UPLC-MS/MS analysis; format: ADME, organism-based; settings: in vivo
[34] = AUC(0 to t) in Sprague-Dawley rat at 50 mg/kg, po measured upto 4 hrs by UPLC-MS/MS analysis; format: ADME, organism-based; settings: in vivo
[35] = AUMC(0 to infinity) in Sprague-Dawley rat at 50 mg/kg, ip measured upto 4 hrs by UPLC-MS/MS analysis; format: ADME, organism-based; settings: in vivo
[36] = Half life in Sprague-Dawley rat at 50 mg/kg, iv measured upto 4 hrs by UPLC-MS/MS analysis; format: ADME, organism-based; settings: in vivo
NIH3T3 [37] = assay: Antifibrotic activity in mouse NIH3T3 cells assessed as decrease in TGFbeta-induced Collagen type 1 expression measured after 48 hrs incubation by Western blotting analysis; format: functional, cell-based; settings: dose 1-10 µM
[38] = AUC(0 to infinity) in Sprague-Dawley rat at 50 mg/kg, ip measured upto 4 hrs by UPLC-MS/MS analysis; format: ADME, organism-based; settings: in vivo

Chain of Transient receptor potential cation channel subfamily V member 1 (Homo sapiens) (Q8NER1 whole entry): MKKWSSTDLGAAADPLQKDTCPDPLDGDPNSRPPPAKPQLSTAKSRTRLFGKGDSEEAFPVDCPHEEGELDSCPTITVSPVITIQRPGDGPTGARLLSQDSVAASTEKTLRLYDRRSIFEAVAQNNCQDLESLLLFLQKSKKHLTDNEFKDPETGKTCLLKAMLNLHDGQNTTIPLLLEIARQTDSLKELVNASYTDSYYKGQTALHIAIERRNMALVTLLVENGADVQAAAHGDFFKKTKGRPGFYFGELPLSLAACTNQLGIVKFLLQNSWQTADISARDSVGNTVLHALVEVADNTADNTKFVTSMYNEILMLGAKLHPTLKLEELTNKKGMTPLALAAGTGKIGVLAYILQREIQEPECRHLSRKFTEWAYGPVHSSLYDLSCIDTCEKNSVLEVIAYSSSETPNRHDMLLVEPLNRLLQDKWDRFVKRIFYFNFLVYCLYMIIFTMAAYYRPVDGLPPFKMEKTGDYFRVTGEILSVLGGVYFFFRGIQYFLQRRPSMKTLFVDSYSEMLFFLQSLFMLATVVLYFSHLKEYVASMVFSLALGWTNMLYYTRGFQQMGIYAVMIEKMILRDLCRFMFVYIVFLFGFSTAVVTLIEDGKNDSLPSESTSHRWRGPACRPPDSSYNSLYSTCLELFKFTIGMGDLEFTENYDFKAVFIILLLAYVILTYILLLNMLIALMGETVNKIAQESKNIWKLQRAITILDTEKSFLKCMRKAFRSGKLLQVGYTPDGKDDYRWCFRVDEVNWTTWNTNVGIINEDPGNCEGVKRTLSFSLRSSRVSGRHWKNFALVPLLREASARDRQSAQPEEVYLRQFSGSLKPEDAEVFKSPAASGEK

SMILES: O=C(/C=C/c1ccc(O)c(O)c1)CCCCc1ccccc1
- inhibition [1]: Active
- AUC(0-t) at 4 h [2]: 2640 ng·h/mL
- inhibition (NIH3T3 [3]): Dose-dependent-effect; Compound Showed Superior Inhibition Effect Than Nintedanib
- inhibition (NIH3T3 [4]): Active
- Cmax [5]: 1490 ng/mL
- bioavailability [6]: 29.6%
- Activity [7]: 2798.2 U/L
- Activity [8]: Non-toxic
- Activity [9]: 34.5 U/L
- Activity [10]: 31.2 g/L
- Activity [11]: Non-toxic
- Activity [12]: 10.43 µmol/L
- Activity (Rattus norvegicus [13]): 1.98
- inhibition (NIH3T3 [14]): Active
- Activity [15]: Non-toxic
- Activity (Mus musculus [16]): Active
- Activity (Rattus norvegicus [17]): 0.84
- Activity [18]: 33.2 g/L
- Activity (Mus musculus [19]): Active
- Activity [20]: Dose-dependent-effect
- Activity (NIH3T3 [21]): Dose-dependent-effect; Compound More Potent Than Nintedanib
- MRT last at 4 h [22]: 31.2 min
- Activity [23]: 345.6 µmol/L
- Activity (NIH3T3 [24]): Dose-dependent-effect; Compound More Potent Than Nintedanib
- Tmax [25]: 10.2 min
- IC50 (NIH3T3 [26]): 510 nM
- Vz [27]: 237.78 L/kg
- Activity [28]: 40.1 U/L
- inhibition (NIH3T3 [29]): Dose-dependent-effect; Compound Showed Superior Inhibition Effect Than Nintedanib
- Activity (Mus musculus [30]): Active
- Tmax [31]: 10.2 min
- Vz [32]: 9.28 L/kg
- VRT(t) [33]: 0.53 hr2
- AUC(0-t) at 4 h [34]: 99 ng·h/mL
- AUMC [35]: 628.01 ug/L.hr
- half-life [36]: 39.4 min
- Activity (NIH3T3 [37]): Dose-dependent-effect; Compound More Potent Than Nintedanib
- AUC [38]: 1095.38 ng·h/mL
